Reference: patent US5312923A, “Process for preparing fibrinogen receptor antagonists” (Merck & Co., Inc., priority 1993, dated 1994)

Tested on: ADP-stimulated platelets
Assay: Inhibition of ADP-stimulated platelet aggregation (gel-filtered human platelets)
Type: cell-based
Settings: read-out: IC50 (concentration required to inhibit aggregation by 50% relative to a control lacking the compound), gel-filtered human platelets 2×10^8 per ml, fibrinogen 100 ug/ml, Ca^2+ 1 mM, 10 mM ADP, 37° C.
Description: The activity of these fibrinogen receptor antagonists is illustrated below. One test used to evaluate fibrinogen receptor antagonist activity is based on evaluation of inhibition of ADP-stimulated platelets. Aggregation requires that fibrinogen bind to and occupy the platelet fibrinogen receptor site. Inhibitors of fibrinogen binding inhibit aggregation. […] Platelet aggregation is measured at 37° C. in a Chronolog aggregometer. The reaction mixture contains gel-filtered human platelets (2×10^8 per ml), fibrinogen (100 micrograms per ml (ug/ml)), Ca^2+ (1 mM), and the fibrinogen receptor antagonists tested. The aggregation is initiated by adding […] ADP 1 minute after the other components are added. The reaction is then allowed to proceed for at least 2 minutes. The extent of inhibition of aggregation is expressed as the percentage of the rate of aggregation observed in the absence of inhibitor. […] Inhibition of ADP-stimulated platelets is shown below in Table 1, which compares the concentration (dosage) of fibrinogen receptor antagonist required to inhibit aggregation by 50% relative to a control lacking the fibrinogen receptor antagonist.

An IC50 of 18 nM was found for `O=C(O)[C@H](Cc1ccc(OCCCCC2CCNCC2)cc1)NS(=O)(=O)c1ccccc1` in this work.
An IC50 of 29 nM was found for `O=C(O)[C@H](Cc1ccc(OCCCCC2CCNCC2)cc1)NS(=O)(=O)CCc1ccccc1` in this work.
An IC50 of 63 nM was found for `CS(=O)(=O)N[C@@H](Cc1ccc(OCCCCC2CCNCC2)cc1)C(=O)O` in this work.
An IC50 of 18 nM was found for `O=C(O)[C@H](Cc1ccc(OCCCCC2CCNCC2)cc1)NS(=O)(=O)Cc1ccccc1` in this work.
An IC50 of 15 nM was found for `CCCCS(=O)(=O)N[C@@H](Cc1ccc(OCCCCC2CCNCC2)cc1)C(=O)O` in this work.
